Assay results as given in US20080293746A1 (priority 2007, published 2008).

Key:
[1] = Free plasma concentrations in the rat CCI studies; details: Sprague Dawley; for concentration at 2.5 h: in vivo
Source text: It is important to ascertain whether any concluded synergy observed in animals or man is due solely to pharmacokinetic interactions.

[2] = test system: CCI-induced static allodynia; assay: Chronic constriction injury (CCI) rat model of neuropathic pain, assessment of static allodynia (von Frey hairs, paw withdrawal threshold); format: in vivo
Procedure: Animals: Male Sprague Dawley rats (150-250 g at the time of surgery), obtained from Charles River, (Manston, Kent, U.K.) were housed in groups of 3. All animals were kept under a 12 hour light/dark cycle (lights on at 07 h 00 min) with food and water ad libitum. All experiments were carried out by an observer blind to the treatments and in accordance with the Home Office Animals (Scientific Procedures) Act 1986.
The CCI of sciatic nerve was performed as previously described by Bennett and Xie (Bennett G J, Xie Y K. A peripheral mononeuropathy in rat that produces disorders of pain sensation like those seen in man. Pain: 33:87-107, 1988). Animals were anaesthetised with a 2% isofluorane/O2 mixture. The right hind thigh was shaved and swabbed with 1% iodine. Animals were then transferred to a homeothermic blanket for the duration of the procedure and anaesthesia maintained during surgery via a nose cone. The skin was cut along the line of the thighbone and the common sciatic nerve was exposed Four ligatures (4-0 silk) were tied loosely around the nerve, 1 cm proximally to the trifurcation, with approx 1 mm spacing. The incision was closed in layers.
Animals were habituated to wire bottom test cages prior to the assessment of allodynia. Static allodynia was evaluated by application of calibrated von Frey hairs (Stoelting, Wood Dale, Ill., USA.) in ascending order of force (0.8, 1, 1.4, 2, 4, 6, 8, 10, 15 and 26 grams) to the plantar surface of hind paws. Each von Frey hair was applied to the paw for a maximum of 6 seconds, or until a withdrawal response occurred. Once a withdrawal response to a von Frey hair was established, the paw was re-tested, starting with the filament below the one that produced a withdrawal, and subsequently with the remaining filaments in descending force sequence until no withdrawal occurred. The highest force of 26 g lifted the paw as well as eliciting a response, thus represented the cut off point. Each animal had both hind paws tested in this manner. The lowest amount of force required to elicit a response was recorded as paw withdrawal threshold (PWT) in grams. Static allodynia was defined as present if animals responded to a stimulus of, or less than, 4 g, which is innocuous in naive rats (Field M J, Bramwell S, Hughes J, Singh L. Detection of static and dynamic components of mechanical allodynia in rat models of neuropathic pain: are they signalled by distinct primary sensory neurones? Pain, 1999; 83:303-11).

clinical = details: human, in vivo, po
Source text: (§1) The pharmacokinetics of sildenafil after oral tablet administration have been extensively studied in healthy volunteers. The pharmacokinetics of 1-(2-ethoxyethyl)-5-[ethyl(methyl)amino]-N-mesyl-7-[(4-methyl-2-pyridyl)amino]-1H-pyrazolo[4,3-o]pyrimidine-3-carboxamide have been recently studied in several healthy volunteer studies.

[3] = human, in vivo, po
Source text: as §1

[4] = oral dosing, CCI-induced static allodynia, rat (FIG. 1)

Row | Compound | concentration at 1.3 h ([1]; plasma, oral, 1 mg/kg) [µM] | concentration at 4.3 h ([1]; plasma, oral, 1 mg/kg) [µM] | effect on any allodynia endpoint ([2]; compound alone, oral dosing at 0.1 to 1 mg/kg (FIG. 2)) | half-life (clinical) [h] | concentration at 2.5 h ([1]; 3 mg/kg) [µM] | concentration at 2.5 h ([1]; 20 mg/kg) [µM] | dose at which a full effect is achieved [2, 4] [mg/kg] | minimum effective dose (MED) [2, 4] [mg/kg] | effect on static allodynia endpoints ([2]; pregabalin alone 10 mg/kg, 2 hours after dosing (FIG. 3)) | steady state peak to trough ratio of plasma concentration time profile [3] [fold]
1 | CCOCCn1nc(C(=O)NS(C)(=O)=O)c2nc(N(C)CC)nc(Nc3cc(C)ccn3)c21 | ≤ 0.0102 | ≤ 0.0161 | no effect observed | 10 to 15 | – | – | – | – | – | –
2 | CC(C)C[C@H](CN)CC(=O)O [pregabalin, (S)-(+)-4-amino-3-(2-methylpropyl)butanoic acid] | – | – | – | – | 17.8 | 89.8 | 20 | 3 | partially reversed | –
3 | CCCc1nn(C)c2c(=O)[nH]c(-c3cc(S(=O)(=O)N4CCN(C)CC4)ccc3OCC)nc12 [sildenafil, 5-[2-ethoxy-5-(4-methyl-1-piperazinyl-sulphonyl)phenyl]-1-methyl-3-n-propyl-1,6-dihydro-7H-pyrazolo[4,3-d]pyrimidin-7-one] | – | – | – | 4 | – | – | – | – | – | ~4
